“Also recorded” adds a separate entry of the source.
How the values were obtained:
[1] = system: phospho-Smad2; experiment: Western blot of phospho-Smad2/3 in TGFβ-treated human orbital fibroblasts; format: cell-based
Protocol: To further characterize the molecular mechanisms whereby salinomycin (and other polyether antibiotics) blocks TGFβ induced myofibroblast formation, activation kinetics were analyzed for some of the key mediators of TGFβ signaling (Weiss et al., “The TGFbeta superfamily signaling pathway,” Wiley Interdiscip. Rev. Dev. Biol. 2:47-63 (2013), which is hereby incorporated by reference in its entirety). Since salinomycin was first identified as a putative anti-scarring molecule by its ability to block TGFβ-induced Smad activity, the levels of phospho-Smad2 were analyzed by Western blot in cells treated with TGFβ or TGFβ plus salinomycin. […] The experiment was repeated, with samples being incubated for extended periods of time including 5, 24, 48 and 72 h hours (FIG. 5A, top panel).

[2] = system: capsular fibroblasts; experiment: Breast implant capsular fibroblasts treated with TGF-β and salinomycin (Western blot, slot blot, morphology); format: cell-based, human; details: for Thy1 expression: 250 nM, untreated and TGF-β (2.5 ng/mL) treated cultures
Protocol: FIG. 9 is a set of images of capsular fibroblasts explanted from primary tissue samples cultured in vitro. Treatment consisted of 48 hours growth in serum-starved media (0.1% fetal bovine serum), followed by administration of vehicle, 2.5 ng/mL transforming growth factor-beta (TGF-β), 250 nM salinomycin (SNC), or TGF-β plus SNC for 72 hours. […] Original magnification 200×.
After treatment, cells were lysed for protein extraction and analysis via Western blot. Data are presented in graph form (FIG. 10A) and as images of Western blots (FIG. 10B). […] All protein expression is relative to β-tubulin levels. At time of cell harvest, media supernatant was also taken and equal volumes run on a slot blot to compare presence of extracellular soluble collagen. In like manner, collagen I increased with TGF- and was reduced with co-administration of SNC. **=p<0.01; ***=p<0.001; ****=p<0.0001.
Peri-implant tissue samples from irradiated (n=4) and non-irradiated (n=9) breast capsules were analyzed for expression of Thy1 mRNA by qRT-PCR (FIG. 8). Additionally, capsular fibroblasts were grown in vitro and treated with the pro-fibrotic cytokine transforming growth factor-β (TGFβ) and the polyether ionophore salinomycin, and analyzed for expression of Thy1, αSMA, fibronectin, and collagen by Western blot (FIG. 9 and FIGS. 10A-B). To investigate the fundamental role of Thy1 in capsular fibroblast/myofibroblast formation, Thy1 expression was depleted using Thy1 siRNA (delivered by lentiviral transduction) (FIGS. 11A-B).

[3] = system: human fibroblasts; experiment: BrdU incorporation assay (cell proliferation); format: cell-based; details: for basal fibroblast proliferation (BrdU incorporation): 250 nM, without TGFβ
Protocol: Human fibroblasts were seeded on a 96-well plate at a density of 1×10^5 cells/well. Cells were treated in triplicate. Cell proliferation was determined using the bromodeoxyuridine (BrdU) assay following manufacturer's instructions. Briefly, cells were treated with a BrdU label at a 1:2000 dilution for 24 h after the initial 72 h treatment with TGFβ+/−drugs. BrdU incorporation was measured using the BrdU Cell Proliferation Assay kit (Calbiochem, San Diego, Calif.) at 450-540 nm using a Varioskan microplate reader.
While salinomycin and other polyether ionophores blocked myofibroblast formation, it was next assessed whether these effects were a result of toxicity and/or due to a block of cell proliferation. Though the treatment doses are relatively low (efficacy in 100-250 nM range), a loss of cell viability could still be a possibility. To test this, human fibroblasts were treated with vehicle (DMSO), 50-250 nM salinomycin alone, TGFβ or TGFβ plus 250 nM salinomycin. As a positive control, fibroblasts were treated with the cytotoxic drug, puromycin. Treated cells were cultured in the presence of alamar blue reagent, which measures mitochondrial oxidation-reduction (REDOX) potential and serves as a quantitative viability sensor. After 72 hours of culture, alamar blue fluorescence was measured to assay cell viability (FIG. 4A). […] It was also tested whether salinomycin affects basal fibroblast proliferation. To address this, cells were treated with vehicle or 250 nm of either salinomycin or narasin for 24 hours in the presence of bromodeoxyuridine (BrdU) to measure cell proliferation ([…], first three bars). […] BrdU was also added to cells treated with TGFβ in the presence or absence of 250 nM salinomycin or narasin (FIG. 4B, last three bars). As expected, TGFβ induced human fibroblast proliferation. Remarkably, both salinomycin and narasin were able to beneficially block TGFβ induced proliferation by 4 to 5 fold, without affecting basal proliferation levels.

[4] = system: TGFβ-dependent myofibroblast formation in primary human fibroblasts; experiment: Myofibroblast formation assay in primary human fibroblasts (morphology, Western blot) for Spectrum hits; format: cell-based
Protocol: Using the lowest effective dose from the secondary screening assay, PPT (5 μM), ASC (1 μM), BTS (1 μM), and AXD (1 μM) were compared to 0.1 μM SNC using primary human fibroblasts (FIG. 13). The myofibroblast formation assay consists of the following protocol: fibroblasts are treated with the aforementioned small molecules and treated with TGFβ (1 ng/ml) for 72 hours. The cells were then either photographed for morphological analysis or collected, lysed and analyzed by Western blot for the myofibroblast markers alpha-smooth muscle actin (αSMA) and calponin. β-tubulin was used as a loading control.
PPT was used at 1 and 5 μM (lanes 3 and 4), BTS was used at 0.1 and 1 μM (lanes 5 and 6), ASC was used at 0.1 and 1 μM (lanes 7 and 8), SNC was used at 100 nM and 1 μM (lanes 9 and 10), and AXD was used at 0.1 and 1 μM (lanes 11 and 12).

[5] = 250 nM plus TGF-β 2.5 ng/mL, 72 hours

SMILES: CC[C@@H](C(=O)[C@@H](C)[C@@H](O)[C@H](C)[C@@H]1O[C@@H]([C@@H](CC)C(=O)O)CC[C@@H]1C)[C@H]1O[C@]2(C=C[C@@H](O)[C@]3(CC[C@@](C)([C@H]4CC[C@](O)(CC)[C@H](C)O4)O3)O2)[C@H](C)C[C@@H]1C [salinomycin]
- reduction of TGFβ induced phospho-Smad2/3 levels ([1]; 250 nM, 5 hours): 2 fold
- reduction of phospho-Smad2 levels compared to TGFβ alone ([1]; 250 nM, 5 hours): 80%
- reduction of TGFβ induced phospho-Smad2/3 levels ([1]; 250 nM, 24 hours): 8-10 fold
- reduction of TGFβ induced phospho-Smad2/3 levels ([1]; 250 nM, 24 hours, listed as Salinomycin): 5 fold
- phospho-Smad2 levels ([1]; early time points (30 sec-1 hour), TGFβ): did not affect phospho-Smad2 levels
- Alpha-SMA expression [2, 5]: below basal levels
- cell morphology (myofibroblastic differentiation) [2, 5]: appears to reduce the effect of TGF-β
- Thy1 expression ([2]; 72 hours): dramatically reduced
- Thy1 expression ([2]; 72 hours, listed as SNC): significantly reduced
- TGFβ-increased αSMA and collagen I ([2]; explanted capsular fibroblasts, TGFβ plus salinomycin): nearly completely inhibited; also recorded: reduced
- TGFβ induced proliferation (BrdU incorporation) ([3]; 250 nM plus TGFβ): significantly blocked TGFβ induced proliferation
- basal fibroblast proliferation (BrdU incorporation) [3]: Neither salinomycin nor narasin blocked basal fibroblast proliferation
- basal fibroblast proliferation (BrdU incorporation) ([3]; listed as Salinomycin): did not affect basal fibroblast proliferation
- α-SMA and calponin expression in human fibroblasts ([4]; FIG. 14 lanes: PPT 1, 5 uM, BTS, ASC, AXD 0.1, 1 uM, SNC 100 nM, 1 uM): inhibit β-dependent α-SMA and calponin expression
- expression of Thy1 ([4]; both doses, 100 nM and 1 μM): inhibits expression of Thy1
- TGFβ-dependent αSMA and calponin (marker) expression ([4]; lower dose, 100 nM): effective even at the lower dose
- myofibroblast formation / phenotype ([4]; lowest effective dose from secondary screen: PPT 5 μM, ASC, BTS, AXD 1 μM, SNC 0.1 μM, TGFβ 1 ng/ml, 72 hours): inhibit myofibroblast phenotype
